Data on six compounds can be found in patent US8334315B2, “Substituted aromatic carboxamide and urea derivatives as vanilloid receptor ligands” (Gruenenthal GmbH, priority 2009, dated 2012).

The target of one assay is T1, hVR1 (Homo sapiens, UniProt Q8NER1).
T1 construct: expressed in transfected cells; host or cells: CHO K1 cells (ECACC), stably transfected
The experiment in a line: Functional test on VR1, FLIPR Ca2+ influx in transfected CHO K1 cells, capsaicin. Further details: key to Ki (human being) [nM] Cap: agonist / partial agonist / no effect: AG=agonist; pAG=partial agonist; NE=no effect. Format: cell-based, human being. As to conditions: for Ki: capsaicin (Cap), includes values given in brackets after pAG, read-out: Ki (human being) [nM] Cap.

Assay [1] addresses T2, rat-species vanilloid receptor 1 (VR1/TRPV1) (Rattus norvegicus, UniProt O35433).
T2 construct: endogenous in cells; host or cells: primary cells dissociated from rat dorsal root ganglia (DRG), cultured 2-3 days with NGF
Put plainly: Functional testing on the vanilloid receptor 1, FLIPR Ca2+ influx in rat DRG cells, capsaicin. As to conditions: for Ki: capsaicin (Cap), includes values given in brackets after pAG. Further details: key to Ki (rat) [nM] Cap: agonist / partial agonist / no effect: AG=agonist; pAG=partial agonist; NE=no effect. It is filed as cell-based.

The structures appear in SMILES notation.

T2 sequence (O35433 whole entry): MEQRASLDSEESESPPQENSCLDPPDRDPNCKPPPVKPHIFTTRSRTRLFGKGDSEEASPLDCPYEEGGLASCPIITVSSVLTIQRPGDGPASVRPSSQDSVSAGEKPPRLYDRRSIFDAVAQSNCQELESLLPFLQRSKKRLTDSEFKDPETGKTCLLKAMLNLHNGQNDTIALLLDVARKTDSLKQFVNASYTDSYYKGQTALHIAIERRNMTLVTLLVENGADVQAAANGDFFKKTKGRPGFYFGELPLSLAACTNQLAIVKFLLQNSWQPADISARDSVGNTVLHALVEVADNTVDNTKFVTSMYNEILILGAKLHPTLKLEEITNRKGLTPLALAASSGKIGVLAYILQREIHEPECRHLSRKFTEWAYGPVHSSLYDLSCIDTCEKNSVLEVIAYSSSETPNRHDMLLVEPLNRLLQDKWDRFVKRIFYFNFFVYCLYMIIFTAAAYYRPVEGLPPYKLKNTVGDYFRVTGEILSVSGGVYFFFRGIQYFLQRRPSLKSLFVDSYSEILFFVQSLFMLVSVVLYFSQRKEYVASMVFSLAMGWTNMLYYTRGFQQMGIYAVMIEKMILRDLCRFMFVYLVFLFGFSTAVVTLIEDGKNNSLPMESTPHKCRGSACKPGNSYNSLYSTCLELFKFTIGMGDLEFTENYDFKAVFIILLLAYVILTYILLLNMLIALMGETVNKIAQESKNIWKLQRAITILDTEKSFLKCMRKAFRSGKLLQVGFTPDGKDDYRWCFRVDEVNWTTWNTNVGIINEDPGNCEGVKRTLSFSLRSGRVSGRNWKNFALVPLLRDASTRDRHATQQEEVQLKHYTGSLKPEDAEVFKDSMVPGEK
T1 sequence (Q8NER1 whole entry): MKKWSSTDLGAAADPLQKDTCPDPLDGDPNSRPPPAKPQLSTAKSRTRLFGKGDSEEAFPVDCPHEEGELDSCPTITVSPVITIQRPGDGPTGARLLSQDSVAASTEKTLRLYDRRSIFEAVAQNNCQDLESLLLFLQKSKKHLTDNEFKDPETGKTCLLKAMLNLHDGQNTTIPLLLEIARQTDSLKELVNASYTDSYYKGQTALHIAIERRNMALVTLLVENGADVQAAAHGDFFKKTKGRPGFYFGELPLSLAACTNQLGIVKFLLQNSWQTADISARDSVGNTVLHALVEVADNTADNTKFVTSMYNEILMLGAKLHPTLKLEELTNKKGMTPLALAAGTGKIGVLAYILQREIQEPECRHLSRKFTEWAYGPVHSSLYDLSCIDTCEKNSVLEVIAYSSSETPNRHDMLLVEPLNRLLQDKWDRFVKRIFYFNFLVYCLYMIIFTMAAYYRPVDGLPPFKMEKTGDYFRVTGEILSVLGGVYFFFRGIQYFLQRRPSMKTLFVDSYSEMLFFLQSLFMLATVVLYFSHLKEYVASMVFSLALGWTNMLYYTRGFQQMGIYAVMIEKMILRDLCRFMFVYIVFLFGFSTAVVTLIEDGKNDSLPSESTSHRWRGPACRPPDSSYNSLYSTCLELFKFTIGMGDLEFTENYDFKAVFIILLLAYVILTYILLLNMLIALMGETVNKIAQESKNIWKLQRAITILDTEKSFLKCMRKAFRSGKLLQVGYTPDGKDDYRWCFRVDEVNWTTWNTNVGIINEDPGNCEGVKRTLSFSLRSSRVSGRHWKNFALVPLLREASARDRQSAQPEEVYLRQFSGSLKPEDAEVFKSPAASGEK

By Ki is commonly meant a dissociation constant, usually derived from enzyme kinetics or from competition with a known ligand. Consider `CC(C(=O)NCc1cc(C(C)(C)C)nn1-c1cccc(Cl)c1)c1ccc2c(c1)OCO2` (stereo not drawn) [Example 11, 2-(benzo[d][1,3]dioxol-5-yl)-N-((3-tert-butyl-1-(3-chlorophenyl)-1H-pyrazol-5-yl)methyl)propanamide], for which, on hVR1, the “Ki (human being) [nM] Cap: agonist / partial agonist / no effect” value was “pAG” and the Ki was found to be 3.5 nM. Further, the “Ki (rat) [nM] Cap: agonist / partial agonist / no effect” value in assay [1] is “AG”.

As to `CC(C(=O)NCc1cc(C(C)(C)C)nn1-c1cccc(Cl)c1)c1ccc2c(c1)OCCO2` (stereo not drawn) [Example 13, N-((3-tert-butyl-1-(3-chlorophenyl)-1H-pyrazol-5-yl)methyl)-2-(2,3-dihydrobenzo[b][1,4]dioxin-6-yl)propanamide], on hVR1, the “Ki (human being) [nM] Cap: agonist / partial agonist / no effect” value was “pAG” and the Ki was 6.4 nM. In assay [1], the “Ki (rat) [nM] Cap: agonist / partial agonist / no effect” value was “pAG” and affinity was put at a Ki of 5.5 nM.

On to `Cc1nc2ccc(C(C)C(=O)NCc3cc(C(F)(F)F)nn3-c3cccc(Cl)c3)cc2s1` (stereo not drawn) [Example 45, N-((1-(3-chlorophenyl)-3-(trifluoromethyl)-1H-pyrazol-5-yl)methyl)-2-(2-methylbenzo[d]thiazol-6-yl)propanamide], for which the inhibitory constant (Ki) on hVR1 is 15 nM. In assay [1], the “Ki (rat) [nM] Cap: agonist / partial agonist / no effect” value is on record as “pAG” and the inhibition constant (Ki) amounted to 14.7 nM.

Turning to `CC(C(=O)NCc1cc(C(F)(F)F)nn1-c1cccc(Cl)c1)c1ccc2cc(O)ccc2c1` (stereo not drawn) [Example 50, N-((1-(3-chlorophenyl)-3-(trifluoromethyl)-1H-pyrazol-5-yl)methyl)-2-(6-hydroxynaphthalen-2-yl)propanamide], on hVR1, the “Ki (human being) [nM] Cap: agonist / partial agonist / no effect” value is recorded as “pAG” and the Ki worked out at 1.3 nM. For the same compound, in assay [1], the “Ki (rat) [nM] Cap: agonist / partial agonist / no effect” value is listed as “pAG” and affinity was put at a Ki of 2.5 nM.

`CC(C(=O)NCc1cc(C(F)(F)F)nn1-c1cccc(Cl)c1)c1cccc2cnccc12` (stereo not drawn) [Example 64, N-((1-(3-chlorophenyl)-3-(trifluoromethyl)-1H-pyrazol-5-yl)methyl)-2-(isoquinolin-5-yl)propanamide]: the results for the Ki (on hVR1; in assay [1]) were 0.2 nM and 1 nM, respectively.

For `CC(C)(C)c1cc(CNC(=O)Nc2ccc3c(c2)CCC3)n(-c2cccc(Cl)c2)n1` [Example 79, 1-((3-tert-butyl-1-(3-chlorophenyl)-1H-pyrazol-5-yl)methyl)-3-(2,3-dihydro-1H-inden-5-yl)urea], the values for the Ki (on hVR1; in assay [1]) were 10.8 nM and 15.8 nM, respectively.
